This passage reports MIC and IC90 results from patent US4472421A, “Azole antimycotics and their use in treating skin conditions caused by Pityrosporum ovale” (Bayer Aktiengesellschaft, priority 1974, dated 1984).

The structures appear in SMILES notation. Values after ≈ are worked out from the molar mass of the structure shown. Counter-ions that a name gives are not always drawn. Like-named read-outs stand apart in the source and are kept apart here.

The subject of this experiment is Pityrosporum ovale. Nature of the experiment: MIC and PI determination on Abbe's medium agar slants, dilution series. In kind it is cell-based. The conditions noted are these: Malassezia furfur, 28° C. On the procedure: Pityrosporum ovale was cultured and the MIC determinations were carried out with a large number of azole derivatives. The growth of Pityrosporum ovale is considerably slower than, for example, of species of Candida or Torulopsis--it takes 3 to 5 days. It requires Abbe's medium as a special nutrient medium.
1. Setting up the dilution series of each preparation: 6.4 mg of preparation are dissolved in 1 ml of analytical grade dimethylformamide and 9 ml of distilled water are added. 1 ml now contains 640 mcg of preparation. If 2 ml are withdrawn and added to 2 ml of H2 O, the resulting concentration is 320 mcg/ml. If this is continued progressively,the following dilution series, in mcg/ml, is obtained: 640-320-160-80-40-20-10-5-2.5-1.25-0.625-0.313-0.156-0.078-0.039-0.02-0.01
2. Charging the test tubes: 0.5 ml portions of the particular dilution are introduced into test tubes.
3. Charging with nutrient medium: Abbe's medium is used.
200 ml portions of Abbe's medium are introduced into nutrient medium flasks. For use, the previously calculated amount of Abbe's medium is liquefied in a steaming pot and cooled until only warm to the touch; 4.5 ml are then added to each test tube. A second person receives each test tube and twirls it between his hands, like a kitchen whisk. This achieves good mixing of the diluted preparation with the nutrient medium. Each test tube is then immediately brought into a slanting position, in the same way as is usually employed to prepare agar slants.
The culture control and the nutrient medium control are each 1 test tube in which 0.5 ml of H2 O is introduced in place of the preparation.
4. Inoculation with Pityrosporum ovale: A culture which had been grown for 3 weeks in Benham's fluid medium at 28° C. was used.
After the nutrient medium has solidified thoroughly in all the test tubes, 0.1 ml of culture is allowed to run over each slant, except for the test tube of the nutrient medium control. 0.1 ml of physiological NaCl solution is added to the latter.
5. Incubation and readings: The incubation is carried out at 28° C. After 3 days, the culture control test tubes show germ growth, which reaches an optimum after 5 days.
The MIC=minimum inhibitory concentration, and the PI=partial inhibition (retardation of growth by about 90% relative to the control, that is to say only about 10% of the germs have grown) are read off in comparison to the control.
Of course,--as is usual in microbiology--all the work was carried out under sterile conditions, that is to say, using, for example, sterile test tubes, pipettes, nutrient media and the like.

[1] abbreviates: 72 h, reading after 3 days, read-out: MIC (minimum inhibitory concentration), reading after 3 days.
Setting [2] is: 120 h, reading after 5 days, read-out: MIC (minimum inhibitory concentration), reading after 5 days.
Setting [3] is: 72 h, reading after 3 days, read-out: PI (partial inhibition, growth reduced by at least 90% compared to the control), reading after 3 days.
Setting [4] is: 120 h, reading after 5 days, read-out: PI (partial inhibition, growth reduced by at least 90% compared to the control), reading after 5 days.

`CC(C)(C)C(=O)C(Oc1ccc(Cl)cc1)n1ccnc1` (stereo not drawn) [Example 1, [1-imidazolyl-(1)]-[1-(4'-chloro)phenoxy]-3-dimethyl-butane-2-one]: the MIC reads like this: under setting [1], less than 1 µg/mL; under setting [2], less than 1 µg/mL.
Consider `CC(C)(C)C(=O)C(Oc1ccc(Cl)cc1Cl)n1ccnc1` (stereo not drawn) [Example 2], for which the MIC under setting [1] was less than 1 µg/mL and the MIC under setting [2] is less than 1 µg/mL.
For the compound `CC(C)(C)C(=O)C(Oc1ccc(Br)cc1)n1ccnc1` (stereo not drawn) [Example 3], the MIC is less than 1 µg/mL under setting [1] and less than 1 µg/mL under setting [2].
For the compound `CC(C)(C)C(=O)C(Oc1ccc(-c2ccc(Cl)cc2)cc1)n1ccnc1` (stereo not drawn) [Example 4, [1-imidazolyl-(1)]-[1-(4'-(4"-chlorophenyl)-phenoxy]-3,3-dimethyl-butan-2-one hydrochloride], the MIC is, setting by setting: under setting [1], less than 1 µg/mL; under setting [2], less than 1 µg/mL.
Take `CC(C)(C)C(=O)C(Cn1ccnc1)Oc1ccc(Cl)cc1Cl` (stereo not drawn) [Example 5, hydrochloride]: the MIC under setting [1] was 2 µg/mL and the MIC under setting [2] is 2 µg/mL. The IC90 by setting is: under setting [3], less than 1 µg/mL; under setting [4], less than 1 µg/mL.
Consider `CC(C)(C)C(O)C(Oc1ccc(-c2ccccc2)cc1)n1ccnc1` (stereo not drawn) [Example 7], for which the MIC came out at 4 µg/mL (≈ 11.9 µM) under setting [1] and 8 µg/mL (≈ 23.8 µM) under setting [2]. The IC90 by setting is: under setting [3], 2 µg/mL (≈ 5.94 µM); under setting [4], 2 µg/mL (≈ 5.94 µM).
`CC(C)(C)C(=O)C(Cn1ccnc1)Oc1ccc(Cl)cc1` (stereo not drawn) [Example 8]: the MIC is 4 µg/mL (≈ 13 µM) under setting [1] and 8 µg/mL (≈ 26.1 µM) under setting [2]. Also, the IC90 worked out at 2 µg/mL (≈ 6.52 µM) under setting [3] and 4 µg/mL (≈ 13 µM) under setting [4].
In the case of `Cc1ccccc1C1(n2ccnc2)c2ccccc2-c2ccccc21` [Example 9], the MIC under setting [1] stood at 8 µg/mL (≈ 24.8 µM) and the MIC under setting [2] turned out to be 8 µg/mL (≈ 24.8 µM). In addition, the IC90 under setting [3] came to 2 µg/mL (≈ 6.2 µM) and the IC90 under setting [4] was determined as 4 µg/mL (≈ 12.4 µM).
For the compound `C#CC(c1ccccc1)(c1ccccc1)n1ccnc1` [Example 10], the MIC under setting [1] was found to be 8 µg/mL (≈ 31 µM) and the MIC under setting [2] stood at 16 µg/mL (≈ 61.9 µM). In addition, the IC90 was less than 1 µg/mL under setting [3] and less than 1 µg/mL under setting [4].
On to `COC(=O)C(c1ccccc1)(c1ccccc1)n1ccnc1` [Example 11], for which the MIC runs as follows: under setting [1], 16 µg/mL (≈ 54.7 µM); under setting [2], 16 µg/mL (≈ 54.7 µM). Moreover, the IC90 is, setting by setting: under setting [3], less than 1 µg/mL; under setting [4], less than 1 µg/mL.
In the case of `CC(C)(C)C(=O)C(Cn1ccnc1)Oc1ccc(-c2ccccc2)cc1` (stereo not drawn) [Example 12], the MIC was 8 µg/mL (≈ 23 µM) under setting [1] and 8 µg/mL (≈ 23 µM) under setting [2]. The IC90 under setting [3] was less than 1 µg/mL and the IC90 under setting [4] was less than 1 µg/mL.
Consider `Clc1ccccc1C(c1ccccc1)(c1ccccc1)n1ccnc1` [Example 13], for which the MIC reads like this: under setting [1], 16 µg/mL (≈ 46.4 µM); under setting [2], 16 µg/mL (≈ 46.4 µM). Moreover, the IC90 under setting [3] came out at 8 µg/mL (≈ 23.2 µM) and the IC90 under setting [4] was 8 µg/mL (≈ 23.2 µM).
On to `CCC(c1ccccc1)(c1ccccc1)n1ccnc1` [Example 14], for which the MIC was 32 µg/mL (≈ 122 µM) under setting [1] and 32 µg/mL (≈ 122 µM) under setting [2]. Besides, the IC90 by setting is: under setting [3], 4 µg/mL (≈ 15.2 µM); under setting [4], 4 µg/mL (≈ 15.2 µM).
`CC(=O)C(c1ccccc1)(c1ccccc1)n1ccnc1` [Example 15]: the MIC came out at 32 µg/mL (≈ 116 µM) under setting [1] and 64 µg/mL (≈ 232 µM) under setting [2]. In addition, the IC90 under setting [3] came to 4 µg/mL (≈ 14.5 µM) and the IC90 under setting [4] worked out at 4 µg/mL (≈ 14.5 µM).
In the case of `Clc1ccc(C(c2ccccc2)(c2ccccc2)n2ccnc2)cc1` [Example 16], the MIC is more than 64 µg/mL under setting [1] and more than 64 µg/mL under setting [2]. Also, the IC90 worked out at 16 µg/mL (≈ 46.4 µM) under setting [3] and 16 µg/mL (≈ 46.4 µM) under setting [4].
With `Clc1cccc(C(c2ccccc2)(n2ccnc2)n2ccnc2)c1` [Example 17], the MIC under setting [1] was more than 64 µg/mL and the MIC under setting [2] was more than 64 µg/mL. Also, the IC90 is, setting by setting: under setting [3], 32 µg/mL (≈ 95.6 µM); under setting [4], 32 µg/mL (≈ 95.6 µM).
As to `CC1(n2ccnc2)c2ccccc2CCc2ccccc21` [Example 18], the MIC reads like this: under setting [1], more than 64 µg/mL; under setting [2], more than 64 µg/mL. Further, the IC90 is 32 µg/mL (≈ 117 µM) under setting [3] and 32 µg/mL (≈ 117 µM) under setting [4].
Consider `CC(C)(C)C(O)C(Oc1ccc(Cl)cc1Cl)(c1ccccc1)n1ccnc1` (stereo not drawn) [Example 19], for which the MIC was more than 64 µg/mL under setting [1] and more than 64 µg/mL under setting [2]. For the same compound, the IC90 under setting [3] turned out to be 64 µg/mL (≈ 158 µM) and the IC90 under setting [4] came to 64 µg/mL (≈ 158 µM).
On to `Brc1cccc(C(c2ccccc2)(n2ccnc2)n2ccnc2)c1` [Example 20], for which the MIC was more than 64 µg/mL under setting [1] and more than 64 µg/mL under setting [2]. The IC90 reads like this: under setting [3], 64 µg/mL (≈ 169 µM); under setting [4], 64 µg/mL (≈ 169 µM).
As for `Cn1ccnc1C(c1ccccc1)(c1ccc(-c2ccccc2)cc1)n1ccnc1` (stereo not drawn) [Example 21], the MIC under setting [1] is more than 64 µg/mL and the MIC under setting [2] is more than 64 µg/mL.
In the case of `Brc1cccc(C(c2ccccc2)(n2cncn2)n2cncn2)c1` [Example 22], the MIC was more than 64 µg/mL under setting [1] and more than 64 µg/mL under setting [2].
